Data as given in DBAASP.
Values after ≈ are worked out from the molar mass of the structure shown. Values joined by “and” are separate entries in the source; they are usually repeats but may differ in a detail not shown here. Equal values may be shown once. Each block holds one compound with its values, some of them ahead of it.

Legend:
Test in all cases: ≥ marks a high value that may be exact or a test limit, other limits are often not marked, values filed in µg/mL are converted to µM
[1] = system: Bacillus subtilis ISW 1214
[2] = system: Escherichia coli BL21
[3] = system: Candida albicans ATCC 90028
[4] = system: Escherichia coli SPE 001
[5] = system: Pseudomonas aeruginosa ATCC 9027
[6] = system: Staphylococcus aureus NBRC 100910
[7] = system: Staphylococcus aureus SPM 101
[8] = system: Staphylococcus aureus USA 100
[9] = system: Staphylococcus aureus USA 300
[10] = system: Alternaria alternata
[11] = system: Botrytis cinerea
[12] = system: Cladosporium herbarum
[13] = system: Clavibacter michiganensis subsp. michiganensis DSM 46294
[14] = system: Pectobacterium carotovorum subsp. carotovorum DSM 30168
[15] = system: Pseudomonas corrugata DSM 7228
[16] = system: Pseudomonas syringae pv. syringae DSM 10604
[17] = system: Pseudomonas syringae pv. tomato DC3000
[18] = system: Xanthomonas vesicatoria DSM 50861
[19] = system: Bacillus subtilis
[20] = system: Candida albicans
[21] = system: Escherichia coli ML-35p
[22] = system: Listeria monocytogenes EGD
[23] = system: Neisseria gonorrhoeae F62
[24] = system: Neisseria gonorrhoeae FA19
[25] = system: Pseudomonas aeruginosa MR3007
[26] = system: Staphylococcus aureus 930918-3
[27] = system: Staphylococcus aureus 90857
[28] = system: Bacillus subtilis KCTC 3038
[29] = system: Candida albicans ATCC 10231
[30] = system: Cryptococcus neoformans ATCC 34881
[31] = system: Enterococcus faecalis ATCC 29212
[32] = system: Escherichia coli ATCC 27325
[33] = system: Micrococcus luteus ATCC 10240
[34] = system: Pseudomonas aeruginosa ATCC 27853
[35] = system: Saccharomyces cerevisiae ATCC 44774
[36] = system: Salmonella typhimurium KCTC 2370
[37] = system: Staphylococcus aureus ATCC 15752
[38] = system: Bacillus subtilis ATCC 62037
[39] = system: Pseudomonas putida ATCC 17426
[40] = system: Salmonella enterica subsp. enterica serovar Enteritidis ATCC 13076
[41] = system: Streptococcus mutans ATCC 25175

Structure (SMILES): CC(=O)NCC(=O)N[C@@H](Cc1c[nH]c2ccccc12)C(=O)N[C@@H](CC(C)C)C(=O)N[C@@H](CCC(N)=O)C(=O)N[C@@H](CC(C)C)C(=O)N[C@@H](C)C(=O)N[C@@H](CCC(N)=O)C(=O)N[C@@H](Cc1cnc[nH]1)C(=O)N[C@@H](CC(C)C)C(=O)N[C@@H](CC(C)C)C(=O)N[C@@H](CCC(N)=O)C(=O)N[C@@H](CC(C)C)C(=O)NCC(=O)N[C@@H](CCC(N)=O)C(=O)N[C@@H](Cc1cnc[nH]1)C(=O)N[C@@H](CC(C)C)C(=O)N[C@@H](CC(C)C)C(=O)N[C@@H](CCC(N)=O)C(=O)N[C@@H](CC(C)C)C(=O)N[C@@H](C)C(=O)N[C@@H](CCC(N)=O)C(=O)N[C@@H](CCC(N)=O)C(=O)N[C@@H](CC(C)C)C(=O)N[C@@H](CCCN=C(N)N)C(=O)N[C@@H](CCCN=C(N)N)C(=O)N[C@@H](CCCN=C(N)N)C(N)=O [GWLQLAQHLLQLGQHLLQLAQQLRRR]
MIC [1]: 2.5 µM (≈ 7.9 µg/mL) | MIC [2]: ≥ 160 µM

Structure (SMILES): CC(C)C[C@H](NC(=O)[C@H](CCCCN)NC(=O)[C@H](CC(C)C)NC(=O)[C@H](CC(C)C)NC(=O)[C@H](CC(C)C)NC(=O)[C@H](CCCCN)NC(=O)[C@H](CC(C)C)NC(=O)[C@@H](N)CCCCN)C(=O)N[C@@H](CCCCN)C(N)=O [KLKLLLKLK]
MIC [3]: ≥ 100 µM | MIC [4]: 7.3 µM (≈ 7.99 µg/mL) | MIC [5]: 12.5 µM (≈ 13.7 µg/mL) | MIC [6]: ≥ 117 µM | MIC [7]: 1.82 µM (≈ 2 µg/mL) | MIC [8]: ≥ 50 µM | MIC [9]: ≥ 50 µM

Structure (SMILES): CC(C)C[C@H](N)C(=O)N[C@H]1CSSC[C@@H](C(=O)N[C@H](C(N)=O)C(C)C)NC(=O)[C@H](C(C)C)NC(=O)[C@@H]2CSSC[C@H](NC(=O)[C@H](Cc3ccc(O)cc3)NC1=O)C(=O)N[C@@H](CCCN=C(N)N)C(=O)N[C@@H](CCCN=C(N)N)C(=O)N[C@@H](CCCN=C(N)N)C(=O)N[C@@H](Cc1ccccc1)C(=O)N2 [LCYCRRRFCVCV]
MIC [19]: 0.22 µM and 0.21 µM | MIC [20]: 7.58 µM (≈ 11.5 µg/mL) | MIC [21]: 0.28 µM and 0.26 µM | MIC [22]: 0.26 µM and 0.55 µM | MIC [23]: 0.64 µM (≈ 0.97 µg/mL) | MIC [24]: 1.34 µM (≈ 2.03 µg/mL) | MIC [25]: 0.2 µM and 0.29 µM | MIC [26]: 0.33 µM and 0.4 µM

Structure (SMILES): CC(C)[C@H](NC(=O)CNC(=O)[C@H](CCC(N)=O)NC(=O)[C@@H](NC(=O)[C@@H](NC(=O)[C@@H]1CCCN1C(=O)[C@H](CCCN=C(N)N)NC(=O)[C@@H](NC(=O)[C@@H](NC(=O)[C@@H](N)CCCN=C(N)N)C(C)C)C(C)C)C(C)C)C(C)C)C(=O)N[C@@H](CCCCN)C(=O)N[C@@H](CCC(N)=O)C(=O)N[C@@H](CCCCN)C(=O)N[C@H](C(=O)N[C@@H](CCCN=C(N)N)C(=O)O)C(C)C [RVVRPVVQGVKQKVR]
MIC [28]: ≥ 36.6 µM | MIC [29]: 36.6 µM (≈ 64 µg/mL) | MIC [30]: ≥ 36.6 µM | MIC [31]: > 36.6 µM | MIC [32]: ≥ 36.6 µM | MIC [33]: ≥ 36.6 µM | MIC [34]: 9.15 µM (≈ 16 µg/mL) | MIC [35]: 18.3 µM (≈ 32 µg/mL) | MIC [36]: ≥ 36.6 µM | MIC [37]: ≥ 36.6 µM

Further lines, results first:

MIC [10]: ≥ 43.2 µM | MIC [11]: ≥ 43.2 µM | MIC [12]: 8.63 µM (≈ 20 µg/mL) | MIC [13]: 2.16 µM (≈ 5 µg/mL) | MIC [14]: 17.3 µM (≈ 40 µg/mL) | MIC [15]: 1.08 µM (≈ 2.5 µg/mL) | MIC [16]: 2.16 µM (≈ 5 µg/mL) | MIC [17]: 2.16 µM (≈ 5 µg/mL) | MIC [18]: 2.16 µM (≈ 5 µg/mL)
Structure (SMILES): CC(C)C[C@H](NC(=O)[C@H](C)NC(=O)CNC(=O)[C@H](CCCN=C(N)N)NC(=O)[C@H](Cc1ccccc1)NC(=O)[C@H](C)NC(=O)[C@H](CCCN=C(N)N)NC(=O)[C@H](Cc1ccccc1)NC(=O)[C@H](C)NC(=O)[C@H](C)NC(=O)[C@H](CC(C)C)NC(=O)[C@H](CCCN=C(N)N)NC(=O)[C@H](CCCN=C(N)N)NC(=O)[C@@H](N)CCCCN)C(=O)N[C@@H](CCCCN)C(=O)N[C@@H](CO)C(=O)N[C@H](C(=O)N[C@@H](CC(C)C)C(=O)N[C@@H](CCCCN)C(=O)N[C@@H](CCCCN)C(N)=O)C(C)C [KRRLAAFRAFRGALKSVLKK]

MIC [13]: 1.66 µM (≈ 2.5 µg/mL) | MIC [14]: 6.63 µM (≈ 9.99 µg/mL) | MIC [15]: 3.31 µM (≈ 5 µg/mL) | MIC [16]: 0.331 µM (≈ 0.5 µg/mL) | MIC [17]: 3.31 µM (≈ 5 µg/mL) | MIC [27]: ≥ 62.5 µM | MIC [18]: 1.66 µM (≈ 2.5 µg/mL)
Structure (SMILES): CC[C@H](C)[C@H](NC(=O)[C@@H](NC(=O)[C@H](CCCCN)NC(=O)[C@H](CCCCN)NC(=O)[C@@H](NC(=O)[C@@H](NC(=O)[C@H](CCCCN)NC(=O)[C@@H](NC(=O)[C@H](CCCCN)NC(=O)[C@H](CCCCN)NC(=O)[C@H](CCCCN)NC(=O)[C@@H](N)CCCN=C(N)N)[C@@H](C)CC)[C@@H](C)CC)[C@@H](C)CC)[C@@H](C)CC)C(N)=O [RKKKIKIIKKII]

MIC [38]: 0.726 µM (≈ 2 µg/mL) | MIC [29]: 0.726 µM (≈ 2 µg/mL) | MIC [32]: 0.726 µM (≈ 2 µg/mL) | MIC [39]: 1.45 µM (≈ 4 µg/mL) | MIC [35]: 0.726 µM (≈ 2 µg/mL) | MIC [40]: 1.45 µM (≈ 4 µg/mL) | MIC [37]: 0.726 µM (≈ 2 µg/mL) | MIC [41]: 0.726 µM (≈ 2 µg/mL)
Structure (SMILES): CC[C@H](C)[C@H](NC(=O)[C@@H]1CCCN1C(=O)[C@H](Cc1c[nH]c2ccccc12)NC(=O)[C@H](CCC(N)=O)NC(=O)[C@H](CCCN=C(N)N)NC(=O)[C@@H](NC(=O)[C@@H](NC(=O)[C@@H](N)CCCN=C(N)N)C(C)C)C(C)C)C(=O)NCC(=O)N[C@@H](CCCN=C(N)N)C(=O)N[C@H](C(=O)N[C@H](C(=O)N[C@@H](CCCN=C(N)N)C(=O)N[C@@H](CCCN=C(N)N)C(=O)N[C@H](C(=O)N[C@H](C(=O)N[C@@H](CCCN=C(N)N)C(=O)N[C@@H](CCCN=C(N)N)C(=O)N[C@H](C(=O)N[C@H](C(=O)N[C@@H](CCCN=C(N)N)C(=O)N[C@@H](CC(C)C)C(=O)O)C(C)C)C(C)C)C(C)C)C(C)C)C(C)C)C(C)C [RVVRQWPIGRVVRRVVRRVVRL]
